Measured values from publication PMC4834642, “Orthogonal ring-closing alkyne and olefin metathesis for the synthesis of small GTPase-targeting bicyclic peptides” (Nature Communications, 2016).
Bridge positions count the residues as written; N and C are the ends. Square brackets hold non-standard residues; d marks the D form. Peptide text beside a SMILES is read from it. S5 = C=CCCC[C@](C)(N)C(=O)O

Tests used:
[1] = On-resin ring-closing alkyne metathesis (RCAM), alpha-methyl-alpha-alkynyl residues at i,i+4, Mo alkylidyne complex 5 (2 mg/mL, 2 x 0.5 mL), Ar bubbling to remove 2-butyne; bicyclic entries (24-29) additionally closed by RCM (Grubbs I); settings: the molecule shown is the open-chain precursor, toluene, 40.0 °C, 3.0 h
Rab8a6-176(GppNHp) = target: T1, Rab8a6-176(GppNHp) (Homo sapiens, UniProt P61006); experiment: Competition fluorescence polarization assay (displacement of labelled peptide 25); format: binding; settings: for Competition with labelled peptide 25 (in words): excess of acetylated peptide added to complex of labelled peptide 25 and Rab8a6-176(GppNHp)
T1 construct: Expression and purification of Rab8a6-176 was performed analog to full-length Rab8a; made in house
T1 sequence (P61006 6-176): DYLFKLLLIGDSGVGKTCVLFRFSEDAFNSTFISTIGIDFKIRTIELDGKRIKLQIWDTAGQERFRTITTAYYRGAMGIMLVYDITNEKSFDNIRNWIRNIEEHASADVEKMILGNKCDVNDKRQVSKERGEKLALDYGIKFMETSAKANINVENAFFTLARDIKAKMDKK
Protocol: Acetylated peptides were serially diluted and incubated with a mixture of the fluorescein-labelled peptide and Rab8a6–176 (GppNHp) at room temperature for 1 h. Fluorescence polarization was determined and IC50 values were calculated by nonlinear regression analysis using Prism 5.0 software (GraphPad)[64].
Rab8a6-176 (GppNHp) was serially diluted in assay buffer and treated with 133 nM fluorescein-labeled peptide. After incubation for 4 h at room temperature the mixture was soaked into capillaries for microscale thermophoresis (MST) measurements. Kd values were calculated after initial fluorescene analysis of the obtained MST curves using the software Monolith Affinity Analysis (NanoTemper Technologies).
Competition fluorescence polarization assay
Acetylated peptides were serially diluted in assay buffer (1:1) and were incubated with a mixture of […] fluorescein-labeled peptide and Rab8a6-176 (GppNHp) (15 µM or 100 µM depending on Kd of the labeled peptide) for 1 h at room temperature.
Fluorescence polarization was dertermined and half maximal inhibitory concentrations (IC50) were calculated by nonlinear regression analysis of dose-response curves using Prism 5.0 software (GraphPad).5

Structure (SMILES): CC#CCCCC[C@](C)(NC(=O)[C@H](CCC(=O)OC(C)(C)C)NC(=O)[C@H](CC(=O)OC(C)(C)C)NC(=O)[C@H](CC(=O)OC(C)(C)C)NC(=O)OCC1c2ccccc2-c2ccccc21)C(=O)N[C@@H](CCC(=O)OC(C)(C)C)C(=O)N[C@@H](CCC(=O)NC(c1ccccc1)(c1ccccc1)c1ccccc1)C(=O)N[C@@H](Cc1ccccc1)C(=O)N[C@@](C)(CCCC#CC)C(=O)N[C@@H](Cc1ccc(OC(C)(C)C)cc1)C(=O)N[C@@H](Cc1cn(C(c2ccccc2)(c2ccccc2)c2ccccc2)cn1)C(=O)N[C@@H](CC(C)C)C(=O)N[C@@H](CC(C)C)C(=O)N[C@@H](COC(C)(C)C)C(=O)N[C@@H](Cc1ccccc1)C(=O)N[C@@H](CC(=O)NC(c1ccccc1)(c1ccccc1)c1ccccc1)C(=O)N[C@@H](C)C(=O)N[C@H](C(N)=O)C(C)C
- ring closure, overall yield ([1]; 22-membered ring): 23%

Structure (SMILES): CC(=O)N[C@@H](CC(=O)O)C(=O)N[C@@H](CC(=O)O)C(=O)N[C@@H](CCC(=O)O)C(=O)N[C@@]1(C)CCC/C=C\CCC[C@@](C)(C(=O)N[C@@H](Cc2ccc(O)cc2)C(=O)N[C@@H](Cc2c[nH]cn2)C(=O)N[C@@H](CC(C)C)C(=O)N[C@@H](CC(C)C)C(=O)N[C@@H](CO)C(=O)N[C@@H](Cc2ccccc2)C(=O)N[C@@H](CC(N)=O)C(=O)N[C@@H](C)C(=O)N[C@H](C(N)=O)C(C)C)NC(=O)[C@H](Cc2ccccc2)NC(=O)[C@H](CCC(N)=O)NC(=O)[C@H](CCC(=O)O)NC1=O [acetylated StRIP3] (Ac-DDE[S5]EQF[S5]YHLLSFNAV-NH2; staple (Z) 4-8; C-terminus assumed)
- IC50 (Rab8a6-176(GppNHp); acetylated peptide as competitor, fluorescein-labelled peptide 25 (60 nM) bound to Rab8a(GppNHp) 15 μM, 1 h room temperature, triplicates, errors 1σ): 33 µM
- Competition with labelled peptide 25 (in words) (Rab8a6-176(GppNHp)): full displacement of peptide 25

Structure (SMILES): CC(=O)N[C@@H](CC(=O)O)C(=O)N[C@@H](CC(=O)O)C(=O)N[C@@H](CCC(=O)O)C(=O)N[C@@H](CCCCN)C(=O)N[C@@H](CCC(=O)O)C(=O)N[C@@H](CCC(N)=O)C(=O)N[C@@H](Cc1ccccc1)C(=O)N[C@@H](CC(C)C)C(=O)N[C@@H](Cc1ccc(O)cc1)C(=O)N[C@@H](Cc1c[nH]cn1)C(=O)N[C@@H](CC(C)C)C(=O)N[C@@H](CC(C)C)C(=O)N[C@@H](CO)C(=O)N[C@@H](Cc1ccccc1)C(=O)N[C@@H](CC(N)=O)C(=O)N[C@@H](C)C(=O)N[C@H](C(N)=O)C(C)C [wt-R6IP] (Ac-DDEKEQFLYHLLSFNAV-NH2; N-terminus and C-terminus assumed)
- Competition with labelled peptide 25 (in words) (Rab8a6-176(GppNHp)): does not compete with peptide 25

Structure (SMILES): CC#CCCC[C@](C)(NC(=O)[C@H](Cc1ccccc1)NC(=O)[C@H](CCC(=O)NC(c1ccccc1)(c1ccccc1)c1ccccc1)NC(=O)[C@H](CCC(=O)OC(C)(C)C)NC(=O)[C@](C)(CCCC#CC)NC(=O)[C@H](CCC(=O)OC(C)(C)C)NC(=O)[C@H](CC(=O)OC(C)(C)C)NC(=O)[C@H](CC(=O)OC(C)(C)C)NC(=O)OCC1c2ccccc2-c2ccccc21)C(=O)N[C@@H](Cc1ccc(OC(C)(C)C)cc1)C(=O)N[C@@H](Cc1cn(C(c2ccccc2)(c2ccccc2)c2ccccc2)cn1)C(=O)N[C@@H](CC(C)C)C(=O)N[C@@H](CC(C)C)C(=O)N[C@@H](COC(C)(C)C)C(=O)N[C@@H](Cc1ccccc1)C(=O)N[C@@H](CC(=O)NC(c1ccccc1)(c1ccccc1)c1ccccc1)C(=O)N[C@@H](C)C(=O)N[C@H](C(N)=O)C(C)C
- ring closure, overall yield ([1]; 21-membered ring): 0%
